According to PubChem BioAssay AID1963972 (Molecular Pharmacology Branch, DTP, NCI, 2024):

Test system: 945468-187-T-J2-PDC spheroids viability
Assay: Anticancer human tumor 945468-187-T-J2-PDC patient-derived rectal carcinoma cell line growth inhibition [PI3K]
Settings: spheroids with HUVEC and MSC; for IC50: curve of first compound; for viability, T/C: stronger effect = lower value
Text: Combinatorial screen of targeted agents with the PI3K inhibitors inavolisib, alpelisib, duvelisib, and copanlisib in multi-cell type tumor spheroids
A high-throughput screen of multi-cell type tumor spheroids was designed to identify active combinations of targeted small molecules and PI3K pathway inhibitors. Complex spheroids include a stromal component modeled by human endothelial cells (HUVEC) and fibroblasts modeled by human mesenchymal stem cells (MSCs). The concentration ranges selected for each drug and investigational agent were based upon clinically achievable concentrations if the clinical Cmax of the agent was known.
Compounds. The drugs and investigational agents: inavolisib (NSC800729), alpelisib (NSC765974), duvelisib (NSC772469), copanlisib (NSC816437), ipatasertib (NSC767898), afuresertib (NSC778305), talazoparib (NSC767125), sapanisertib (NSC764658), selumetinib (NSC741078), tovorafenib (DAY101, NSC766906), vemurafenib (NSC761431), ravoxertinib (NSC781343), sotorasib (NSC818433), MRTX1133 (NSC 836407), abemaciclib (NSC 768073), palbociclib (NSC758247), venetoclax (NSC 766270), SY5609 (NSC837396), enzalutamide (NSC755605), and darolutamide (NSC825331), were obtained from the National Cancer Institute (NCI) Developmental Therapeutics Program Chemical Repository. The FDA-approved anticancer drug set is available from the NCI Developmental Therapeutics Program. […] The stock solutions were prepared in dimethyl sulfoxide (DMSO, Sigma-Aldrich, St. Louis, MO, cat. D2650) at 800-fold the tested concentration and stored at -70 degrees C prior to their use. All drugs and investigational agents were tested over a range starting from a high concentration at or near the clinical Cmax and decreasing in half-log increments. If the clinical Cmax for an agent had not been determined, the highest concentration tested was 10 microM.
Cell Culture. All cells were maintained in an incubator at 37 degrees C and 5% CO2 with 95% humidity. The PDC lines were cultured according to standard operating procedures established by the NCI PDMR (https://pdmr.cancer.gov/sops/default.htm). All PDCs were thawed and cultured in Matrigel-coated flasks prepared with a working solution of 1X Ham's F-12 nutrient mix, without supplementation (Invitrogen, Waltham, MA, cat. 11765054), 100 U/mL penicillin-streptomycin (Invitrogen, cat. 15140122), and 2.5% Matrigel (Corning Inc., Corning, NY, cat. 354248) for the first three passages. The 354836-022-R-J1-PDC, 475296-252-R-J1-PDC, and 997726-040-R-J2-PDC lines were cultured in 6A media, which includes advanced DMEM/F-12 (Thermo Fisher Scientific, cat. 12634028), 10 mM HEPES (Thermo Fisher Scientific, cat. 15630080), 1X GlutaMAX supplement (Thermo Fisher Scientific, cat. 35050061), 0.1 mg/mL primocin (InvivoGen, San Diego, CA, cat. ant-pm-2), 10% defined fetal bovine serum, heat inactivated (HyClone Laboratories Inc., Logan, UT, cat. SH30070.03HI), 50% L-WRN conditioned media (ATCC, cat. CRL-3276), 1.25 mM N-Acetyl-L-cysteine (Sigma-Aldrich, cat. A9165), 10 mM nicotinamide (Sigma-Aldrich, cat. N0636), 1X B-27 supplement (Thermo Fisher Scientific, cat. 17504044), 1X N-2 supplement (Thermo Fisher Scientific, cat. 17502048), and 10 microM Y-27632 dihydrochloride (Tocris Bioscience, Bristol, United Kingdom, cat. 1254). The 624824-186-R-J2-PDC line was cultured in 6C/Colon 1B media, which includes all 6A media components plus 50 ng/mL human EGF recombinant protein (Thermo Fisher Scientific, cat. PHG0311). […]
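Note: spheroids exposed to compounds for seven days before reading.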

For `CNC(=O)c1ccc(N2C(=S)N(c3ccc(C#N)c(C(F)(F)F)c3)C(=O)C2(C)C)cc1F` + CC(Nc1ccc2c(c1)OCCn1cc(N3C(=O)OCC3C(F)F)nc1-2)C(N)=O, the IC50 (second compound 0.00316 µM) was over 10 µM, the IC50 (second compound 0.01 µM) was over 10 µM and the IC50 (second compound 0.0316 µM) was over 10 µM. It also gave an IC50 (second compound 0.1 µM) of over 10 µM, an IC50 (second compound 0.316 µM) of over 10 µM and an IC50 (second compound 1 µM) of over 10 µM. For the same molecule, the viability, T/C (second compound 0.00316 µM, first compound 0.0316 µM) was 96.3%, the viability, T/C (second compound 0.00316 µM, first compound 0.1 µM) was 84.8% and the viability, T/C (second compound 0.00316 µM, first compound 0.316 µM) was 123%. It also gave a viability, T/C (second compound 0.00316 µM, first compound 1 µM) of 95%, a viability, T/C (second compound 0.00316 µM, first compound 3.16 µM) of 83.4% and a viability, T/C (second compound 0.00316 µM, first compound 10 µM) of 80.1%. The viability, T/C (second compound 0.01 µM, first compound 0.0316 µM) was 95.5%, the viability, T/C (second compound 0.01 µM, first compound 0.1 µM) was 82% and the viability, T/C (second compound 0.01 µM, first compound 0.316 µM) was 85.4%. For the same molecule, the viability, T/C (second compound 0.01 µM, first compound 1 µM) was 103%, the viability, T/C (second compound 0.01 µM, first compound 3.16 µM) was 96.8% and the viability, T/C (second compound 0.01 µM, first compound 10 µM) was 84.4%. For the same molecule, the viability, T/C (second compound 0.0316 µM, first compound 0.0316 µM) was 93.9%, the viability, T/C (second compound 0.0316 µM, first compound 0.1 µM) was 78.2% and the viability, T/C (second compound 0.0316 µM, first compound 0.316 µM) was 102%. It also gave a viability, T/C (second compound 0.0316 µM, first compound 1 µM) of 103%, a viability, T/C (second compound 0.0316 µM, first compound 3.16 µM) of 99.4% and a viability, T/C (second compound 0.0316 µM, first compound 10 µM) of 90.3%. For the same molecule, the viability, T/C (second compound 0.1 µM, first compound 0.0316 µM) was 103%, the viability, T/C (second compound 0.1 µM, first compound 0.1 µM) was 124% and the viability, T/C (second compound 0.1 µM, first compound 0.316 µM) was 96.4%. It also gave a viability, T/C (second compound 0.1 µM, first compound 1 µM) of 92.5%, a viability, T/C (second compound 0.1 µM, first compound 3.16 µM) of 86.5% and a viability, T/C (second compound 0.1 µM, first compound 10 µM) of 76%. It also gave a viability, T/C (second compound 0.316 µM, first compound 0.0316 µM) of 91%, a viability, T/C (second compound 0.316 µM, first compound 0.1 µM) of 95.5% and a viability, T/C (second compound 0.316 µM, first compound 0.316 µM) of 88.6%. The viability, T/C (second compound 0.316 µM, first compound 1 µM) was 88.6%, the viability, T/C (second compound 0.316 µM, first compound 3.16 µM) was 89.1% and the viability, T/C (second compound 0.316 µM, first compound 10 µM) was 71.6%. For the same molecule, the viability, T/C (second compound 1 µM, first compound 0.0316 µM) was 84.4%, the viability, T/C (second compound 1 µM, first compound 0.1 µM) was 88.6% and the viability, T/C (second compound 1 µM, first compound 0.316 µM) was 86.7%. For the same molecule, the viability, T/C (second compound 1 µM, first compound 1 µM) was 87.4%, the viability, T/C (second compound 1 µM, first compound 3.16 µM) was 64.4% and the viability, T/C (second compound 1 µM, first compound 10 µM) was 79.6%.
